Laboratory results reported in ChEMBL document CHEMBL3091305, “Metabolism-guided discovery of a potent and orally bioavailable urea-based calcimimetic for the treatment of secondary hyperparathyroidism” (Bioorg Med Chem Lett, 2013).

Tests used:
in vivo [1] = settings: Sprague-Dawley, rat, iv, 0.5 mg/kg
in vivo [2] = settings: Sprague-Dawley, rat, po, 2 mg/kg

| SMILES | clearance (in vivo [1]) [mL/min/kg] | bioavailability (in vivo [2]) [%] |
| --- | --- | --- |
| CS(=O)(=O)Nc1ccc(-c2csc(NC(=O)N(CCC(c3ccccc3)c3ccccc3)CCN3CCOCC3)n2)cc1 | 63.3 | – |
| NS(=O)(=O)c1ccc(-c2nsc(NC(=O)N(CCC(c3ccc(F)cc3)c3ccc(F)cc3)CCN3CCOCC3)n2)cc1 | 26.7 | 39 |
